According to US9796709B2, “5-hydroxy-4-(trifluoromethyl)pyrazolopyridine derivative” (Daiichi Sankyo Company, Limited, priority 2013, dated 2017):

Experiments:
LCAT = target: T1, LCAT (Homo sapiens, UniProt P04180); test: LCAT activity measurement (in vitro), [14C]cholesterol esterification with HDL3 fraction; type: biochemical; conditions: HDL3 fraction from plasma of a healthy person as enzyme source and acceptor; 37° C., approximately 16 hours; relative to sample without test drug; read-out: EC50 of LCAT activation
T1 construct: The obtained fraction was dialyzed against phosphate-buffered saline (pH 7.4) and used as an enzyme source and an acceptor for LCAT; from tissue; host or cells: HDL3 fraction (1.125 < specific gravity < 1.210 g/mL) of plasma from a healthy person
T1 sequence (P04180 25-440): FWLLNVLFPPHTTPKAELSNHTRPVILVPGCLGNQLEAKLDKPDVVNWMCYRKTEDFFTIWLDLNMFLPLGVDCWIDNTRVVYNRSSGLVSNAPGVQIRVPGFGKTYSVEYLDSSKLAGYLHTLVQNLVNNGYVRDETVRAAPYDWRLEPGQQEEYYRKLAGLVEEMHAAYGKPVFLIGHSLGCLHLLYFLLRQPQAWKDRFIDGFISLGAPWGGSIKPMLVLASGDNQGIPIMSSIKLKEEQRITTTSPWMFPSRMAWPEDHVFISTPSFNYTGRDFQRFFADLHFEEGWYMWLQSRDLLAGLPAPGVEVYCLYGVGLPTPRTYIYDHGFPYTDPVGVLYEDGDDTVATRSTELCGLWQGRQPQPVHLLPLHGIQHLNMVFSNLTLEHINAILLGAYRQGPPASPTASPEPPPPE
Procedure: A fraction composed of HDL3 (1.125 <specific gravity <1.210 g/mL) was obtained from the plasma of a healthy person by density gradient centrifugation. The obtained fraction was dialyzed against phosphate-buffered saline (pH 7.4) and used as an enzyme source and an acceptor for LCAT. Each test drug was prepared by dissolution in dimethyl sulfoxide. [^14C]Cholesterol containing DTNB (Ellman's reagent, final concentration: 0.5 mM), mercaptoethanol (final concentration: 12.5 mM), and 0.6% bovine serum albumin was added to phosphate-buffered saline (pH 7.4) containing 1 mg/mL HDL3, and the test drug was further added thereto at varying concentrations to adjust the whole amount to 80 μL. This mixture was incubated at 37° C. for approximately 16 hours. Then, a mixed solution of hexane and isopropanol (mixing ratio=3:2) was added thereto to stop the reaction. After stirring, the hexane layer was collected, and this layer was evaporated to dryness. A chloroform solution (concentration: 10 mg/mL) was added thereto, and the mixture was spotted onto a thin-layer silica gel plate and developed using a mixed solution of hexane, diethyl ether, and ethyl acetate (mixing ratio=85:15:2). The radioactivity of a portion corresponding to cholesterol oleate was measured using an imaging analyzer BAS-2500 (manufactured by Fujifilm Corp.). A sample non-supplemented with the test drug was similarly treated and assayed. The EC50 value of LCAT activation was calculated according to the expression given below relative to LCAT activity in the sample non-supplemented with the test drug.
[formula] • wherein X represents the logarithm of the concentration of the test drug; • Y represents the responsiveness (LCAT activity) of the test drug; • Top represents the maximum value (maximum plateau); • Bottom represents the minimum value (minimum plateau); and • EC50 represents the 50% effective concentration.

cynomolgus monkey = test: Drug efficacy test in cynomolgus monkeys (plasma HDL cholesterol); type: in vivo; conditions: Macaca fascicularis, oral, single dose of 10 mg/kg, from AUC before administration and 24 hours after administration, read-out: Rate of increase in HDL level after administration of single dose
Procedure: Each test drug was dissolved in a propylene glycol (Sigma-Aldrich Corp.)-Tween 80 (Sigma-Aldrich Corp.) mixed solution [4/1 (v/v)] or a 0.5% (w/v) methylcellulose aqueous solution, and the solution was orally administered to a cynomolgus monkey for 1 or 7 days. At day 1 or 7 of the administration period, blood was collected before administration and after administration, and plasma was obtained. The content of cholesterol in the plasma was measured using a commercially available assay kit (Cholesterol-E Wako, Wako Pure Chemical Industries, Ltd.). The lipoprotein profile was analyzed by HPLC (column: LipopropakXL, manufactured by Tosoh Corp.). The contents of HDL cholesterol and non-HDL cholesterol were calculated according to the following calculation expression: Content of HDL cholesterol=Content of cholesterol in the plasma×(Peak area of HDL cholesterol/Total sum of peaks) Content of non-HDL cholesterol=Content of cholesterol in the plasma×(Peak area of non-HDL cholesterol/Total sum of peaks)

Row | EC50 (LCAT) | SMILES | change in vivo at 10 mg/kg (cynomolgus monkey)
1 | 18 nM | O=C1Nc2[nH]nc(C3CCN(c4cnc(C(F)(F)F)nc4)CC3)c2[C@@H](C(F)(F)F)[C@H]1O (single isomer, unassigned) [Example 21, (+)-cis-5-Hydroxy-4-(trifluoromethyl)-3-{1-[2-(trifluoromethyl)pyrimidin-5-yl]piperidin-4-yl}-1,4,5,7-tetrahydro-6H-pyrazolo[3,4-b]pyridin-6-one] | 483%
2 | 51 nM | N#Cc1cnc(N2CCC(c3n[nH]c4c3[C@@H](C(F)(F)F)[C@@H](O)C(=O)N4)CC2)cc1C(F)(F)F (single isomer, unassigned) [Example 20, (+)-6-{4-[cis-5-Hydroxy-6-oxo-4-(trifluoromethyl)-4,5,6,7-tetrahydro-1H-pyrazolo[3,4-b]pyridin-3-yl]piperidin-1-yl}-4-(trifluoromethyl)pyridine-3-carbonitrile] | 454%
